{
  "source": "patent US20250171438A1",
  "about": "(Agios Pharmaceuticals, Inc., priority 2022, published 2025)",
  "data": [
    {"target": "T1, human PAH with the R408W mutation (Homo sapiens, UniProt P00439, R408W)", "T1 construct": "expressed in transfected cells", "T1 sequence (P00439 1-452 R408W)": "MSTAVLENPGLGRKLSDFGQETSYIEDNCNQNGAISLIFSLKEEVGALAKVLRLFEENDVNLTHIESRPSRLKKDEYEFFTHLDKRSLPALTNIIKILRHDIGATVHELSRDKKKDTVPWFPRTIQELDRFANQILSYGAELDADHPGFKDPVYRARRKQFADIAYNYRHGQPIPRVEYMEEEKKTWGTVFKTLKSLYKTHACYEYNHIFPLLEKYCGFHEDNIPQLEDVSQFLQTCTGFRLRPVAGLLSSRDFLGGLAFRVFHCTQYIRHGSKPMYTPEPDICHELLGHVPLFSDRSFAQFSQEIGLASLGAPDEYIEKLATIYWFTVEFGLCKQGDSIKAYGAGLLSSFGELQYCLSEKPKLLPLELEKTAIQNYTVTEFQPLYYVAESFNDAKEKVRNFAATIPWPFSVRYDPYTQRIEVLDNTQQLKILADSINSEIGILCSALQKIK", "experiment": "Cell Based Phenylalanine Flux Assay", "conditions": "A375 cells expressing human R408W PAH; 24 hrs compound incubation; 13C-Tyrosine by LC-MS; average where tested multiple times; read-out: AC50", "units": {"AC50": "nM"}, "values": [
      {"smiles": "Cc1ccc(-c2nnc(C(=O)N3CCc4[nH]cnc4[C@@H]3c3nc4c(F)cccc4s3)o2)nc1", "note": "[Example 1903, (R)-(4-(4-fluorobenzo[d]thiazol-2-yl)-6,7-dihydro-1H-imidazo[4,5-c]pyridin-5(4H)-yl)(5-(5-methylpyridin-2-yl)-1,3,4-oxadiazol-2-yl)methanone]", "AC50": "500 to 1000"},
      {"smiles": "Cc1ccc(-c2nnc(C(=O)N3CCc4[nH]cnc4[C@H]3c3nc4c(F)cccc4s3)o2)nc1", "note": "[Example 1904, (S)-(4-(4-fluorobenzo[d]thiazol-2-yl)-6,7-dihydro-1H-imidazo[4,5-c]pyridin-5(4H)-yl)(5-(5-methylpyridin-2-yl)-1,3,4-oxadiazol-2-yl)methanone]", "AC50": "< 500"},
      {"smiles": "O=C(c1nnc(-c2cc(C(F)(F)F)ccn2)o1)N1CCc2[nH]cnc2[C@@H]1c1nc2c(F)cccc2s1", "note": "[Example 1905, (R)-(4-(4-fluorobenzo[d]thiazol-2-yl)-6,7-dihydro-1H-imidazo[4,5-c]pyridin-5(4H)-yl)(5-(4-(trifluoromethyl)pyridin-2-yl)-1,3,4-oxadiazol-2-yl)methanone]", "AC50": "500 to 1000"},
      {"smiles": "O=C(c1nnc(-c2cc(C(F)(F)F)ccn2)o1)N1CCc2[nH]cnc2[C@H]1c1nc2c(F)cccc2s1", "note": "[Example 1906, (S)-(4-(4-fluorobenzo[d]thiazol-2-yl)-6,7-dihydro-1H-imidazo[4,5-c]pyridin-5(4H)-yl)(5-(4-(trifluoromethyl)pyridin-2-yl)-1,3,4-oxadiazol-2-yl)methanone]", "AC50": "< 500"},
      {"smiles": "O=C(c1cn(-c2ccccn2)nc1Cl)N1CCc2[nH]cnc2[C@H]1c1nc2ccccc2s1", "note": "[Example 1907]", "AC50": "500 to 1000"},
      {"smiles": "O=C(c1cn(-c2ccccn2)nc1Cl)N1CCc2[nH]cnc2[C@@H]1c1nc2ccccc2s1", "note": "[Example 1908, (R)-(4-(benzo[d]thiazol-2-yl)-6,7-dihydro-1H-imidazo[4,5-c]pyridin-5(4H)-yl)(3-chloro-1-(pyridin-2-yl)-1H-pyrazol-4-yl)methanone]", "AC50": "1000 to 5000"},
      {"smiles": "O=C(C1CN(c2ncccc2F)C1)N1CCc2[nH]cnc2[C@H]1c1nc2ccccc2s1", "note": "[Example 1909]", "AC50": "500 to 1000"},
      {"smiles": "O=C(C1CN(c2ncccc2F)C1)N1CCc2[nH]cnc2[C@@H]1c1nc2ccccc2s1", "note": "[Example 1910, (R)-(4-(benzo[d]thiazol-2-yl)-6,7-dihydro-1H-imidazo[4,5-c]pyridin-5(4H)-yl)(1-(3-fluoropyridin-2-yl)azetidin-3-yl)methanone]", "AC50": "> 5000"},
      {"smiles": "Cc1nc([C@H](C)O)oc1C(=O)N1CCc2[nH]cnc2[C@H]1c1nc2c(F)cccc2s1", "note": "[Example 1911, ((S)-4-(4-fluorobenzo[d]thiazol-2-yl)-6,7-dihydro-1H-imidazo[4,5-c]pyridin-5(4H)-yl)(2-((S)-1-hydroxyethyl)-4-methyloxazol-5-yl)methanone]", "AC50": "500 to 1000"},
      {"smiles": "Cc1nc([C@H](C)O)oc1C(=O)N1CCc2[nH]cnc2[C@@H]1c1nc2c(F)cccc2s1", "note": "[Example 1912, ((R)-4-(4-fluorobenzo[d]thiazol-2-yl)-6,7-dihydro-1H-imidazo[4,5-c]pyridin-5(4H)-yl)(2-((S)-1-hydroxyethyl)-4-methyloxazol-5-yl)methanone]", "AC50": "> 5000"},
      {"smiles": "Cc1nc(C2(O)CCC2)oc1C(=O)N1CCc2[nH]cnc2[C@H]1c1nc2c(F)cccc2s1", "note": "[Example 1913, (S)-(4-(4-fluorobenzo[d]thiazol-2-yl)-6,7-dihydro-1H-imidazo[4,5-c]pyridin-5(4H)-yl)(2-(1-hydroxycyclobutyl)-4-methyloxazol-5-yl)methanone]", "AC50": "500 to 1000"},
      {"smiles": "Cc1nc(C2(O)CCC2)oc1C(=O)N1CCc2[nH]cnc2[C@@H]1c1nc2c(F)cccc2s1", "note": "[Example 1914, (R)-(4-(4-fluorobenzo[d]thiazol-2-yl)-6,7-dihydro-1H-imidazo[4,5-c]pyridin-5(4H)-yl)(2-(1-hydroxycyclobutyl)-4-methyloxazol-5-yl)methanone]", "AC50": "1000 to 5000"},
      {"smiles": "COC(C)(C)c1nc(C)c(C(=O)N2CCc3[nH]cnc3[C@@H]2c2nc3c(F)cccc3s2)o1", "note": "[Example 1915, (R)-(4-(4-fluorobenzo[d]thiazol-2-yl)-6,7-dihydro-1H-imidazo[4,5-c]pyridin-5(4H)-yl)(2-(2-methoxypropan-2-yl)-4-methyloxazol-5-yl)methanone]", "AC50": "> 5000"},
      {"smiles": "COC(C)(C)c1nc(C)c(C(=O)N2CCc3[nH]cnc3[C@H]2c2nc3c(F)cccc3s2)o1", "note": "[Example 1916, (S)-(4-(4-fluorobenzo[d]thiazol-2-yl)-6,7-dihydro-1H-imidazo[4,5-c]pyridin-5(4H)-yl)(2-(2-methoxypropan-2-yl)-4-methyloxazol-5-yl)methanone]", "AC50": "1000 to 5000"},
      {"smiles": "Cn1nc(CF)cc1C(=O)N1CCc2[nH]cnc2[C@H]1c1nc2c(F)cccc2s1", "note": "[Example 1917, (S)-(4-(4-fluorobenzo[d]thiazol-2-yl)-6,7-dihydro-1H-imidazo[4,5-c]pyridin-5(4H)-yl)(3-(fluoromethyl)-1-methyl-1H-pyrazol-5-yl)methanone]", "AC50": "500 to 1000"},
      {"smiles": "Cn1nc(CF)cc1C(=O)N1CCc2[nH]cnc2[C@@H]1c1nc2c(F)cccc2s1", "note": "[Example 1918, (R)-(4-(4-fluorobenzo[d]thiazol-2-yl)-6,7-dihydro-1H-imidazo[4,5-c]pyridin-5(4H)-yl)(3-(fluoromethyl)-1-methyl-1H-pyrazol-5-yl)methanone]", "AC50": "1000 to 5000"},
      {"smiles": "Cc1c(C(=O)N2CCc3[nH]cnc3[C@H]2c2nc3c(F)cccc3s2)cnn1CC(F)(F)F", "note": "[Example 1919, (S)-(4-(4-fluorobenzo[d]thiazol-2-yl)-6,7-dihydro-1H-imidazo[4,5-c]pyridin-5(4H)-yl)(5-methyl-1-(2,2,2-trifluoroethyl)-1H-pyrazol-4-yl)methanone]", "AC50": "500 to 1000"},
      {"smiles": "Cc1c(C(=O)N2CCc3[nH]cnc3[C@@H]2c2nc3c(F)cccc3s2)cnn1CC(F)(F)F", "note": "[Example 1920, (R)-(4-(4-fluorobenzo[d]thiazol-2-yl)-6,7-dihydro-1H-imidazo[4,5-c]pyridin-5(4H)-yl)(5-methyl-1-(2,2,2-trifluoroethyl)-1H-pyrazol-4-yl)methanone]", "AC50": "> 5000"},
      {"smiles": "O=C(c1nnc(-c2cn[nH]c2)o1)N1CCc2[nH]cnc2[C@H]1c1nc2ccccc2s1", "note": "[Example 1921]", "AC50": "500 to 1000"},
      {"smiles": "O=C(c1nnc(-c2cn[nH]c2)o1)N1CCc2[nH]cnc2[C@@H]1c1nc2ccccc2s1", "note": "[Example 1922, (R)-(5-(1H-pyrazol-4-yl)-1,3,4-oxadiazol-2-yl)(4-(benzo[d]thiazol-2-yl)-6,7-dihydro-1H-imidazo[4,5-c]pyridin-5(4H)-yl)methanone]", "AC50": "1000 to 5000"},
      {"smiles": "Cn1nc(Cl)cc1C(=O)N1CCc2[nH]cnc2[C@H]1c1nc2ccccc2s1", "note": "[Example 1923]", "AC50": "< 500"},
      {"smiles": "Cn1nc(Cl)cc1C(=O)N1CCc2[nH]cnc2[C@@H]1c1nc2ccccc2s1", "note": "[Example 1924, (R)-(4-(benzo[d]thiazol-2-yl)-6,7-dihydro-1H-imidazo[4,5-c]pyridin-5(4H)-yl)(3-chloro-1-methyl-1H-pyrazol-5-yl)methanone]", "AC50": "1000 to 5000"},
      {"smiles": "Cc1nn(C)cc1-c1nnc(C(=O)N2CCc3[nH]cnc3[C@H]2c2nc3ccccc3s2)o1", "note": "[Example 1925]", "AC50": "< 500"},
      {"smiles": "Cc1nn(C)cc1-c1nnc(C(=O)N2CCc3[nH]cnc3[C@@H]2c2nc3ccccc3s2)o1", "note": "[Example 1926, (R)-(4-(benzo[d]thiazol-2-yl)-6,7-dihydro-1H-imidazo[4,5-c]pyridin-5(4H)-yl)(5-(1,3-dimethyl-1H-pyrazol-4-yl)-1,3,4-oxadiazol-2-yl)methanone]", "AC50": "1000 to 5000"},
      {"smiles": "Cn1cc(-c2nnc(C(=O)N3CCc4[nH]cnc4[C@H]3c3nc4c(F)cccc4s3)o2)c(C(F)(F)F)n1", "note": "[Example 1927, (S)-(4-(4-fluorobenzo[d]thiazol-2-yl)-6,7-dihydro-1H-imidazo[4,5-c]pyridin-5(4H)-yl)(5-(1-methyl-3-(trifluoromethyl)-1H-pyrazol-4-yl)-1,3,4-oxadiazol-2-yl)methanone]", "AC50": "< 500"},
      {"smiles": "Cn1cc(-c2nnc(C(=O)N3CCc4[nH]cnc4[C@@H]3c3nc4c(F)cccc4s3)o2)c(C(F)(F)F)n1", "note": "[Example 1928, (R)-(4-(4-fluorobenzo[d]thiazol-2-yl)-6,7-dihydro-1H-imidazo[4,5-c]pyridin-5(4H)-yl)(5-(1-methyl-3-(trifluoromethyl)-1H-pyrazol-4-yl)-1,3,4-oxadiazol-2-yl)methanone]", "AC50": "1000 to 5000"},
      {"smiles": "Cc1nc([C@@H](C)O)oc1C(=O)N1CCc2[nH]cnc2[C@H]1c1nc2c(F)cccc2s1", "note": "[Example 1929, ((S)-4-(4-fluorobenzo[d]thiazol-2-yl)-6,7-dihydro-1H-imidazo[4,5-c]pyridin-5(4H)-yl)(2-((R)-1-hydroxyethyl)-4-methyloxazol-5-yl)methanone]", "AC50": "500 to 1000"},
      {"smiles": "Cc1nc([C@@H](C)O)oc1C(=O)N1CCc2[nH]cnc2[C@@H]1c1nc2c(F)cccc2s1", "note": "[Example 1930, ((R)-4-(4-fluorobenzo[d]thiazol-2-yl)-6,7-dihydro-1H-imidazo[4,5-c]pyridin-5(4H)-yl)(2-((R)-1-hydroxyethyl)-4-methyloxazol-5-yl)methanone]", "AC50": "1000 to 5000"},
      {"smiles": "CC(C)(C)n1ncc(C(=O)N2CCc3[nH]cnc3[C@H]2c2nc3c(F)cccc3s2)c1Cl", "note": "[Example 1931]", "AC50": "500 to 1000"},
      {"smiles": "CC(C)(C)n1ncc(C(=O)N2CCc3[nH]cnc3[C@@H]2c2nc3c(F)cccc3s2)c1Cl", "note": "[Example 1932, (R)-(1-(tert-butyl)-5-chloro-1H-pyrazol-4-yl)(4-(4-fluorobenzo[d]thiazol-2-yl)-6,7-dihydro-1H-imidazo[4,5-c]pyridin-5(4H)-yl)methanone]", "AC50": "1000 to 5000"}
    ]}
  ]
}
